Data published in patent US8680133B2, “Alkyl indole-3-carbinol-derived antitumor agents” (The Ohio State University Research Foundation, priority 2009, dated 2014).
“Also recorded” adds a separate entry of the source.

Columns and labels:
HL-60(TB) = assay: NCI60 screening, Leukemia, HL-60(TB); type: cell-based, human
[1] = test system: PC-3 prostate cancer cells; assay: MTT assay of PC-3 cell viability; type: cell-based; conditions: MTT assay, 24, 48 and 72 h; comparison in words
Description: Each data point represents means±S.D. (n=6). The activity of OSU-A9M versus its parent compound A9 ([1-(3′-nitro-4′-chlorobenzenesulfonyl)-1H-indol-3-yl]-methanol) and its fluorinated counterpart OSU-A9F ([1-(4-Chloro-3-nitro-benzenesulfonyl)-5-fluoro-1H-indol-3-yl])-methanol in suppressing the cell viability of PC-3 prostate cancer cells was compared using the MTT [3-(4,5-dimethylthiazol-2-yl)-2,5-diphenyl-2H-tetrazolium bromide] assay. Cancer cells and PrECs were grown in 5% FBS-supplemented RPMI 1640 medium or 5% FBS-supplemented prostate epithelial growth medium, respectively, in 96-well, flat-bottomed plates for 24 h, and then exposed to various concentrations of test agents in the same medium for the indicated time intervals. Controls received DMSO vehicle at a concentration equal to that in drug-treated cells. At the end of the treatment, the medium was removed, replaced by 200 μL of 0.5 mg/mL of MTT in the same medium, and cells were incubated in the CO2 incubator at 37° C. for 2 h. Supernatants were removed from the wells, and the reduced MTT dye was solubilized in 200 μL/well DMSO. Absorbance at 570 nm was determined on a plate reader.

NCI-H23 = assay: NCI60 screening, Non-Small Cell Lung Cancer, NCI-H23; type: cell-based, human
T-47D = assay: NCI60 screening, Breast Cancer, T-47D; type: cell-based, human
U0-31 = assay: NCI60 screening, Renal Cancer, U0-31; type: cell-based, human
OVCAR-3 = assay: NCI60 screening, Ovarian Cancer, OVCAR-3; type: cell-based, human
A549/ATCC = assay: NCI60 screening, Non-Small Cell Lung Cancer, A549/ATCC; type: cell-based, human
CAKI-1 = assay: NCI60 screening, Renal Cancer, CAKI-1; type: cell-based, human
LOX IMVI = assay: NCI60 screening, Melanoma, LOX IMVI; type: cell-based, human
HCT-116 = assay: NCI60 screening, Colon Cancer, HCT-116; type: cell-based, human
MDA-MB-468 = assay: NCI60 screening, Breast Cancer, MDA-MB-468; type: cell-based, human
EKVX = assay: NCI60 screening, Non-Small Cell Lung Cancer, EKVX; type: cell-based, human
HCC-2998 = assay: NCI60 screening, Colon Cancer, HCC-2998; type: cell-based, human
SK-MEL-5 = assay: NCI60 screening, Melanoma, SK-MEL-5; type: cell-based, human
SNB-19 = assay: NCI60 screening, CNS Cancer, SNB-19; type: cell-based, human
[2] = Homo sapiens, read-out: LC50 (the source's name)

Cc1ccc2c(c1)c(CO)cn2S(=O)(=O)c1ccc(Cl)c([N+](=O)[O-])c1 [OSU-A9M, [1-(4-chloro-3-nitro-benzenesulfonyl)-5-methyl-1H-indol-3-yl]-methanol]
TGI (HL-60(TB)): 4.80E−6
GI50 (HL-60(TB); Homo sapiens): 1550 nM
CC50 (HL-60(TB); [2]): 32500 nM
Percent Growth (HL-60(TB); Log10 Concentration −4.0): −67%
Percent Growth (HL-60(TB); Log10 Concentration −5.0): −32%
Percent Growth (HL-60(TB); Log10 Concentration −6.0): 69%
Percent Growth (HL-60(TB); Log10 Concentration −7.0): 84%
Percent Growth (HL-60(TB); Log10 Concentration −8.0): 91%
In vitro potency against the viability of PC-3 cells [1]: greater than or similar to that of OSU-A9; also recorded: greater potency than OSU-A9 and OSU-A9F
TGI (NCI-H23): 2.89E−6
GI50 (NCI-H23; Homo sapiens): 1530 nM
CC50 (NCI-H23; [2]): 5460 nM
Percent Growth (NCI-H23; Log10 Concentration −4.0): −96%
Percent Growth (NCI-H23; Log10 Concentration −5.0): −97%
Percent Growth (NCI-H23; Log10 Concentration −6.0): 83%
Percent Growth (NCI-H23; Log10 Concentration −7.0): 90%
Percent Growth (NCI-H23; Log10 Concentration −8.0): 92%
TGI (T-47D): 2.91E−6
GI50 (T-47D; Homo sapiens, T47D): 1120 nM
CC50 (T-47D; Homo sapiens, T47D, read-out: LC50 (the source's name)): 7540 nM
Percent Growth (T-47D; Log10 Concentration −4.0): −61%
Percent Growth (T-47D; Log10 Concentration −5.0): −65%
Percent Growth (T-47D; Log10 Concentration −6.0): 56%
Percent Growth (T-47D; Log10 Concentration −7.0): 93%
Percent Growth (T-47D; Log10 Concentration −8.0): 95%
TGI (U0-31): 3.46E−6
GI50 (U0-31; Homo sapiens): 1830 nM
CC50 (U0-31; [2]): 6540 nM
Percent Growth (U0-31; Log10 Concentration −4.0): −100%
Percent Growth (U0-31; Log10 Concentration −5.0): −83%
Percent Growth (U0-31; Log10 Concentration −6.0): 97%
Percent Growth (U0-31; Log10 Concentration −7.0): 98%
Percent Growth (U0-31; Log10 Concentration −8.0): 87%
TGI (OVCAR-3): 4.90E−7
GI50 (OVCAR-3; Homo sapiens): 225 nM
CC50 (OVCAR-3; [2]): 1190 nM
Percent Growth (OVCAR-3; Log10 Concentration −4.0): −100%
Percent Growth (OVCAR-3; Log10 Concentration −5.0): −100%
Percent Growth (OVCAR-3; Log10 Concentration −6.0): −46%
Percent Growth (OVCAR-3; Log10 Concentration −7.0): 102%
Percent Growth (OVCAR-3; Log10 Concentration −8.0): 100%
TGI (A549/ATCC): 4.89E−6
GI50 (A549/ATCC; Homo sapiens): 2050 nM
CC50 (A549/ATCC; [2]): > 100000 nM
Percent Growth (A549/ATCC; Log10 Concentration −4.0): −47%
Percent Growth (A549/ATCC; Log10 Concentration −5.0): −41%
Percent Growth (A549/ATCC; Log10 Concentration −6.0): 91%
Percent Growth (A549/ATCC; Log10 Concentration −7.0): 94%
Percent Growth (A549/ATCC; Log10 Concentration −8.0): 95%
TGI (CAKI-1): 2.90E−6
GI50 (CAKI-1; Homo sapiens): 1480 nM
CC50 (CAKI-1; [2]): 5700 nM
Percent Growth (CAKI-1; Log10 Concentration −4.0): −95%
Percent Growth (CAKI-1; Log10 Concentration −5.0): −92%
Percent Growth (CAKI-1; Log10 Concentration −6.0): 79%
Percent Growth (CAKI-1; Log10 Concentration −7.0): 95%
Percent Growth (CAKI-1; Log10 Concentration −8.0): 92%
TGI (LOX IMVI): 2.86E−7
GI50 (LOX IMVI; Homo sapiens): 138 nM
CC50 (LOX IMVI; [2]): 594 nM
Percent Growth (LOX IMVI; Log10 Concentration −4.0): −100%
Percent Growth (LOX IMVI; Log10 Concentration −5.0): −100%
Percent Growth (LOX IMVI; Log10 Concentration −6.0): −86%
Percent Growth (LOX IMVI; Log10 Concentration −7.0): 72%
Percent Growth (LOX IMVI; Log10 Concentration −8.0): 84%
TGI (HCT-116): 1.57E−6
GI50 (HCT-116; Homo sapiens): 461 nM
LC50 (HCT-116; Homo sapiens): 3970 nM
Percent Growth (HCT-116; Log10 Concentration −4.0): −100%
Percent Growth (HCT-116; Log10 Concentration −5.0): −100%
Percent Growth (HCT-116; Log10 Concentration −6.0): 24%
Percent Growth (HCT-116; Log10 Concentration −7.0): 100%
Percent Growth (HCT-116; Log10 Concentration −8.0): 101%
TGI (MDA-MB-468): 2.18E−6
GI50 (MDA-MB-468; Homo sapiens): 979 nM
CC50 (MDA-MB-468; [2]): 4780 nM
Percent Growth (MDA-MB-468; Log10 Concentration −4.0): −95%
Percent Growth (MDA-MB-468; Log10 Concentration −5.0): −97%
Percent Growth (MDA-MB-468; Log10 Concentration −6.0): 50%
Percent Growth (MDA-MB-468; Log10 Concentration −7.0): 86%
Percent Growth (MDA-MB-468; Log10 Concentration −8.0): 90%
TGI (EKVX): 3.15E−6
GI50 (EKVX; Homo sapiens): 1600 nM
CC50 (EKVX; [2]): 6210 nM
Percent Growth (EKVX; Log10 Concentration −4.0): −93%
Percent Growth (EKVX; Log10 Concentration −5.0): −85%
Percent Growth (EKVX; Log10 Concentration −6.0): 85%
Percent Growth (EKVX; Log10 Concentration −7.0): 99%
Percent Growth (EKVX; Log10 Concentration −8.0): 91%
TGI (HCC-2998): 2.73E−6
GI50 (HCC-2998; Homo sapiens): 1420 nM
CC50 (HCC-2998; [2]): 5230 nM
Percent Growth (HCC-2998; Log10 Concentration −4.0): −99%
Percent Growth (HCC-2998; Log10 Concentration −5.0): −100%
Percent Growth (HCC-2998; Log10 Concentration −6.0): 77%
Percent Growth (HCC-2998; Log10 Concentration −7.0): 91%
Percent Growth (HCC-2998; Log10 Concentration −8.0): 96%
TGI (SK-MEL-5): 2.83E−6
GI50 (SK-MEL-5; Homo sapiens): 1500 nM
CC50 (SK-MEL-5; [2]): 5320 nM
Percent Growth (SK-MEL-5; Log10 Concentration −4.0): −100%
Percent Growth (SK-MEL-5; Log10 Concentration −5.0): −100%
Percent Growth (SK-MEL-5; Log10 Concentration −6.0): 82%
Percent Growth (SK-MEL-5; Log10 Concentration −7.0): 92%
Percent Growth (SK-MEL-5; Log10 Concentration −8.0): 96%
TGI (SNB-19): 2.97E−6
GI50 (SNB-19; Homo sapiens): 1620 nM
CC50 (SNB-19; [2]): 5450 nM
Percent Growth (SNB-19; Log10 Concentration −4.0): −100%
Percent Growth (SNB-19; Log10 Concentration −5.0): −100%
Percent Growth (SNB-19; Log10 Concentration −6.0): 90%
Percent Growth (SNB-19; Log10 Concentration −7.0): 86%
Percent Growth (SNB-19; Log10 Concentration −8.0): 88%
